Measured values taken from paper PMC4312132, “Phenylalanine in the Pore of the Erwinia Ligand-Gated Ion Channel Modulates Picrotoxinin Potency but Not Receptor Function” (Biochemistry, 2014).
Read-outs that look alike come from different tables or passages of the source.

Tests used:
Assay type in all cases: cell-based, Erwinia chrysanthemii
Q2′N ELIC [1] = target: T1, Q2′N ELIC (Dickeya chrysanthemi, UniProt P0C7B7, Q232N); assay: GABA activation of Q2′N ELIC, two-electrode voltage clamp in Xenopus oocytes
T1 construct: expressed in transfected cells; host or cells: Xenopus laevis oocytes (cRNA injection)

T6′A ELIC [2] = target: T2, T6′A ELIC (Dickeya chrysanthemi, UniProt P0C7B7, T236A); assay: GABA activation of T6′A ELIC, two-electrode voltage clamp in Xenopus oocytes
T2 construct: expressed in transfected cells; host or cells: Xenopus laevis oocytes (cRNA injection)

T6′S ELIC [3] = target: T3, T6′S ELIC (Dickeya chrysanthemi, UniProt P0C7B7, T236S); assay: GABA activation of T6′S ELIC, two-electrode voltage clamp in Xenopus oocytes
T3 construct: expressed in transfected cells; host or cells: Xenopus laevis oocytes (cRNA injection)

F16′A ELIC [4] = target: T4, F16′A ELIC (Dickeya chrysanthemi, UniProt P0C7B7, F246A); assay: GABA activation of F16′A ELIC, two-electrode voltage clamp in Xenopus oocytes
T4 construct: expressed in transfected cells; host or cells: Xenopus laevis oocytes (cRNA injection)
Experimental: (§1) Xenopus laevis oocyte-positive females were purchased from NASCO (Fort Atkinson, WI) and maintained according to standard methods. Harvested stage V and VI Xenopus oocytes were washed in four changes of Ca^2+-free ND96 [96 mM NaCl, 2 mM KCl, 1 mM MgCl2, and 5 mM HEPES (pH 7.5)], defolliculated in 1.5 mg mL^–1 collagenase type 1A for approximately 2 h, washed again in four changes of ND96, and stored in ND96 at 16 °C containing 2.5 mM sodium pyruvate, […] gentamycin, and 0.7 mM theophylline.
(§2) ELIC (GenBank accession number ADN00343.1) was kindly provided by C. Ulens. For expression in Xenopus oocytes, it was cloned into pGEMHE with the signal sequence of the human α7 nACh receptor. […] Stage V and VI oocytes were injected with 20 ng of cRNA, and currents were recorded 1–3 days postinjection.
(§3) Using two-electrode voltage clamp, Xenopus oocytes were clamped at −60 mV using an OC-725 amplifier (Warner Instruments, Hamden, CT), Digidata 1322A, and the Strathclyde Electrophysiology Software Package (Department of Physiology and Pharmacology, University of Strathclyde, Glasgow, U.K.). Currents were recorded at 5 kHz and filtered at a frequency of 1 kHz. […] Inhibition by test compounds was measured at the GABA EC50 for each mutant. […]

F16′D ELIC [5] = target: T5, F16′D ELIC (Dickeya chrysanthemi, UniProt P0C7B7, F246D); assay: GABA activation of F16′D ELIC, two-electrode voltage clamp in Xenopus oocytes
T5 construct: expressed in transfected cells; host or cells: Xenopus laevis oocytes (cRNA injection)

F16′E ELIC [6] = target: T6, F16′E ELIC (Dickeya chrysanthemi, UniProt P0C7B7, F246E); assay: GABA activation of F16′E ELIC, two-electrode voltage clamp in Xenopus oocytes
T6 construct: expressed in transfected cells; host or cells: Xenopus laevis oocytes (cRNA injection)
Experimental: as §1, §2, §3

F16′Q ELIC = target: T7, F16′Q ELIC (Dickeya chrysanthemi, UniProt P0C7B7, F246Q); assay: GABA activation of F16′Q ELIC, two-electrode voltage clamp in Xenopus oocytes
T7 construct: expressed in transfected cells; host or cells: Xenopus laevis oocytes (cRNA injection)

F16′L ELIC = target: T8, F16′L ELIC (Dickeya chrysanthemi, UniProt P0C7B7, F246L); assay: GABA activation of F16′L ELIC, two-electrode voltage clamp in Xenopus oocytes
T8 construct: expressed in transfected cells; host or cells: Xenopus laevis oocytes (cRNA injection)
Experimental: as §1, §2, §3

F16′S ELIC [7] = target: T9, F16′S ELIC (Dickeya chrysanthemi, UniProt P0C7B7, F246S); assay: GABA activation of F16′S ELIC, two-electrode voltage clamp in Xenopus oocytes
T9 construct: expressed in transfected cells; host or cells: Xenopus laevis oocytes (cRNA injection)

F16′T ELIC [8] = target: T10, F16′T ELIC (Dickeya chrysanthemi, UniProt P0C7B7, F246T); assay: GABA activation of F16′T ELIC, two-electrode voltage clamp in Xenopus oocytes
T10 construct: expressed in transfected cells; host or cells: Xenopus laevis oocytes (cRNA injection)

F16′W ELIC [9] = target: T11, F16′W ELIC (Dickeya chrysanthemi, UniProt P0C7B7, F246W); assay: GABA activation of F16′W ELIC, two-electrode voltage clamp in Xenopus oocytes
T11 construct: expressed in transfected cells; host or cells: Xenopus laevis oocytes (cRNA injection)

F16′Y ELIC = target: T12, F16′Y ELIC (Dickeya chrysanthemi, UniProt P0C7B7, F246Y); assay: GABA activation of F16′Y ELIC, two-electrode voltage clamp in Xenopus oocytes
T12 construct: expressed in transfected cells; host or cells: Xenopus laevis oocytes (cRNA injection)

F16′S/T6′S ELIC = target: T13, F16′S/T6′S ELIC (Dickeya chrysanthemi, UniProt P0C7B7, F246S/T236S); assay: GABA activation of F16′S/T6′S ELIC, two-electrode voltage clamp in Xenopus oocytes
T13 construct: expressed in transfected cells; host or cells: Xenopus laevis oocytes (cRNA injection)

Q2′N ELIC [10] = target: T1, Q2′N ELIC; assay: Inhibition of GABA-elicited currents of Q2′N ELIC in Xenopus oocytes
T6′A ELIC [11] = target: T2, T6′A ELIC; assay: Inhibition of GABA-elicited currents of T6′A ELIC in Xenopus oocytes
Experimental: as §1, §2, §3

T6′S ELIC [12] = target: T3, T6′S ELIC; assay: Inhibition of GABA-elicited currents of T6′S ELIC in Xenopus oocytes
F16′A ELIC [13] = target: T4, F16′A ELIC; assay: Inhibition of GABA-elicited currents of F16′A ELIC in Xenopus oocytes; conditions: inhibition measured at the GABA EC50
F16′D ELIC [14] = target: T5, F16′D ELIC; assay: Inhibition of GABA-elicited currents of F16′D ELIC in Xenopus oocytes
Experimental: as §1, §2, §3

F16′W ELIC [15] = target: T11, F16′W ELIC; assay: Inhibition of GABA-elicited currents of F16′W ELIC in Xenopus oocytes
F16′S ELIC [16] = target: T9, F16′S ELIC; assay: Inhibition of GABA-elicited currents of F16′S ELIC in Xenopus oocytes
F16′T ELIC [17] = target: T10, F16′T ELIC; assay: Inhibition of GABA-elicited currents of F16′T ELIC in Xenopus oocytes
F16′E ELIC [18] = target: T6, F16′E ELIC; assay: Inhibition of GABA-elicited currents of F16′E ELIC in Xenopus oocytes
T6′S/F16′S ELIC = target: T14, T6′S/F16′S ELIC (Dickeya chrysanthemi, UniProt P0C7B7, F246S/T236S); assay: Inhibition of GABA-elicited currents of T6′S/F16′S ELIC in Xenopus oocytes; conditions: inhibition measured at the GABA EC50
T14 construct: expressed in transfected cells; host or cells: Xenopus laevis oocytes injected with cRNA transcribed from pGEMHE
T14 sequence (P0C7B7 1-321 T236S/F246S): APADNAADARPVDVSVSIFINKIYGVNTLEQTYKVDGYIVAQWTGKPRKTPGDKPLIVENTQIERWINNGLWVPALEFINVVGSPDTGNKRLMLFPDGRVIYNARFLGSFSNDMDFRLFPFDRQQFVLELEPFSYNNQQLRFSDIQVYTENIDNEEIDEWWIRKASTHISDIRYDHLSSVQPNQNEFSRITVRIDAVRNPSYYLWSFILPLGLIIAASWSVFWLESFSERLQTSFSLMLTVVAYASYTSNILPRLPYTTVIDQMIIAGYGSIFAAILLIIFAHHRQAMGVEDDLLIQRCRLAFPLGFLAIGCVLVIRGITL

## NCCCC(=O)O [GABA, γ-aminobutyric acid]
Q2′N ELIC [1]
  EC50: 1820 µM
T6′A ELIC [2]; GABA EC50, T6′A ELIC
  EC50: 800 µM
T6′A ELIC [2]; GABA pEC50, T6′A ELIC
  EC50: 851 µM
T6′S ELIC [3]
  EC50: 1780 µM
F16′A ELIC [4]
  EC50: 4900 µM
F16′D ELIC [5]
  EC50: 2090 µM
F16′E ELIC [6]; GABA EC50, F16′E ELIC
  EC50: 26000 µM
F16′E ELIC [6]; GABA pEC50, F16′E ELIC
  EC50: 25700 µM
F16′Q ELIC
  EC50: 7760 µM
F16′L ELIC; GABA EC50, F16′L ELIC
  EC50: 51000 µM
F16′L ELIC; GABA pEC50, F16′L ELIC
  EC50: 51300 µM
F16′S ELIC [7]
  EC50: 7100 µM
F16′T ELIC [8]; GABA EC50, F16′T ELIC
  EC50: 11000 µM
F16′T ELIC [8]; GABA pEC50, F16′T ELIC
  EC50: 11500 µM
F16′W ELIC [9]
  EC50: 2290 µM
F16′Y ELIC
  EC50: 7500 µM
F16′S/T6′S ELIC
  EC50: 6400 µM

## C=C(C)[C@@H]1[C@H]2OC(=O)[C@@H]1[C@]1(O)C[C@H]3O[C@]34C(=O)O[C@H]2[C@]14C [PXN, Picrotoxinin]
Q2′N ELIC [10]
  IC50: 44 µM
T6′A ELIC [11]
  IC50: 95 µM
T6′S ELIC [12]
  IC50: 68 µM
F16′A ELIC [13]; IC50, F16′A ELIC
  IC50: 16 µM
F16′A ELIC [13]; pIC50, F16′A ELIC
  IC50: 16.6 µM
F16′D ELIC [14]
  IC50: 9.4 µM
F16′W ELIC [15]
  IC50: 52 µM
F16′S ELIC [16]
  IC50: 4.5 µM
F16′T ELIC [17]
  IC50: 7.2 µM
F16′E ELIC [18]
  IC50: 26.9 µM
T6′S/F16′S ELIC; IC50, T6′S/F16′S ELIC
  IC50: 44 µM

## CCCC(C(=O)OCCN(CC)CC)(c1ccccc1)c1ccccc1 [proadifen]
T6′S ELIC [12]; T6′S ELIC, inhibition measured at the GABA EC50, read-out: pIC50 (converted)
  IC50: 2.57 µM
F16′S ELIC [16]; F16′S ELIC, inhibition measured at the GABA EC50, read-out: IC50
  IC50: 5.1 µM
T6′S/F16′S ELIC; T6′S/F16′S ELIC, read-out: IC50
  IC50: 0.9 µM
T6′S/F16′S ELIC; T6′S/F16′S ELIC, read-out: pIC50 (converted)
  IC50: 0.933 µM
